Patent EP4644377A1, “LIPID COMPOUND FOR GENE DELIVERY AND LIPID NANOPARTICLE COMPRISING SAME” (NANJING CYBERNAX BIOMEDICAL TECHNOLOGY CO., LTD., priority 2022, dated 2024)

How the values were obtained:
[1] = Particle size detection of LNP (Brookhaven NanoBrook Omni, DLS); format: physicochemical; conditions: LNPs after coating mRNA (luciferase)
Experimental: Step 1. Preparation of a lipid solution and a nucleic acid solution: unless otherwise specified, all aqueous solutions involved in examples were prepared from deionized water without nucleases. An ionizable lipid, a phospholipid (disaturated phosphatidylcholine (DSPC) or dioleoylphosphatidylethanolamine (DOPE)), cholesterol and a PEG lipid (DMG-PEG2000) were mixed in a molar ratio of 50/10/38.5/1.5 (containing DSPC, formulation 1) or 36.5/16/46.5/2.5 (containing DOPE, formulation 2) and dissolved into an ethanol solution. Meanwhile, a nucleic acid (a mass ratio of ionizable lipid/nucleic acid was 10/1) was dissolved into a citrate buffer solution of pH=3, so that a final volume ratio of the ethanol solution to the citrate solution was 1/3.
Step 2. Preparation of LNP by mixing the lipid solution with the nucleic acid solution: the lipid ethanol solution and the nucleic acid aqueous solution that were prepared in Step 1 were respectively put into a sterile syringe and placed in a Precision Nanosystem Ignite instrument, the extrusion flow speeds of the ethanol solution and the water phase solution were respectively set as 3 ml/min and 9 ml/min in instrument program settings. A microfluidic chip was inserted into the instrument and LNP preparation was initiated, and then a solution mixed by the chip was collected.
Step 2.1. Preparation of an LNP solution coating nucleic acid in a porous plate: a solution of an ionizable lipid, a phospholipid (DSPC or DOPE), cholesterol and a PEG lipid (DMG-PEG2000) in ethanol was added into each well of a 96-well deep plate, so that a molar ratio of four component lipids in each well was 50/10/38.5/1.5 (containing DSPC, formulation 1) or 36.5/16/46.5/2.5 (containing DOPE, formulation 2). Then, a citrate buffer solution (pH=3, the mass of nucleic acid added into each well was 1/10 that of the ionizable lipid in this well) that was three times as ethanol in volume and dissolved with a nucleic acid molecule was quickly added into the well plate through a multi-channel pipette or an automatic liquid dispensing system and rapidly mixed, so as to obtain the LNP solution coating nucleic acid.
Step 3. Purification of the LNP solution: the LNP solution collected in Step 2 or Step 2.1 was subjected to dialysis-concentration-filtration operations, so as to obtain a final LNP solution coating nucleic acid for subsequent testing.
The LNP solution coating nucleic acid obtained in Step 3 was diluted so that the final lipid concentration was between 0.01 mg/ml and 0.1 mg/ml. The diluted solution was added into a sample reservoir, and then subjected to particle size detection in a Brookhaven NanoBrook Omni instrument.

C57Bl/6 mice = assay: Luciferase mRNA delivery in mice, IVIS chemiluminescence; format: in vivo
Experimental: The animal experiments were reviewed and approved by the Ethics Committee of Zhejiang Medical College and the Ethics Committee of Zhejiang University of Technology. 6- to 8-week-old male C57Bl/6 mice were randomly grouped with 3 mice in each group. The mice in each group received a lipid nanoparticle coating mRNA expressing a luciferase via tail vein injection at a dose of 0.25 mg/kg mouse body weight (calculated by the mass of coated mRNA). […] The mRNA delivery effect of the lipid nanoparticle is quantitatively compared through a total chemiluminiscence quantity (Total Flux p/s) of a mouse whole body within unit time (shown in Table 5).
Table 13 and Table 14 show whole body chemiluminescent signals when LNPs (formulation 2) composed of the lipids in some examples deliver Flue mRNA in mice. The delivery dose of Flue mRNA was 0.25 mg/kg. 6 h after LNP injection, 150 mg/kg of D-luciferin was intraperitoneally injected into the mice, and then the whole body chemiluminescent signals were collected in the IVIS imaging system after 10 min. […]

[2] = LNP formulation 2 (SM102: formulation 1), luciferase mRNA 0.25 mg/kg, tail vein, C57Bl/6 mice, whole body signal 6 h after LNP, 10 min after D-luciferin 150 mg/kg i.p.
[3] = LNPs (formulation 2), Flue mRNA 0.25 mg/kg, tail vein injection, whole body signal 6 h after LNP injection, 10 min after 150 mg/kg D-luciferin i.p.

PDI [1] | Particle size [1] | SMILES | Chemiluminescent signal (p/s) (C57Bl/6 mice; [2]) | further results
0.26 | 128.73 ± 1.97 nm·days | CCCCCCCC/C=C\CCCCCCCCNC(=O)C(N(CCCN(C)C)C(=O)CCCCCCC/C=C\C[C@H](O)CCCCCC)C(C)(C)C (some centres unmarked) [Lipid 16] | 6.94E+09 p/s | 
 |  | CCCCCCCC/C=C\CCCCCCCCNC(=O)C(N(CCCN(CC)CC)C(=O)CCCCCCCCCCC)C(C)(C)C (centres unmarked) [Lipid 30] | 1.35E+08 p/s | 
 |  | CCCCCCCC/C=C\CCCCCCCCNC(=O)C(C1CCCCC1)N(CCN1CCN(C)CC1)C(=O)CCCCCCCCCCC (centres unmarked) [Lipid 60] | 4.10E+07 p/s | 
 |  | CCCCC/C=C\C/C=C\CCCCCCCC(=O)N(CCCN(C)C)C(C(=O)NCCCC(=O)OCCCCCCCC/C=C\CCCCCCCC)C(CC)CC (centres unmarked) [Lipid 108] | 4.23E+09 p/s | 
 |  | CCCCCCCC/C=C\CCCCCCCC(=O)OCCCNC(=O)C(C(CC)CC)N(CCCN(CC)CC)C(=O)CCCCCCCCCCC (centres unmarked) [Lipid 113] | 3.39E+08 p/s | 
 |  | CCCCCCCCCCCCCCNC(=O)C(N(CCCN(CC)CC)C(=O)CCCCCCCCCCC)C(C)(C)C (centres unmarked) [Lipid 158] | 3.83E+08 p/s | 
0.22 | 136.93 ± 2.95 nm·days | CCCCCCCCCCCCCCNC(=O)C(N(CCCN(CC)CC)C(=O)CCCCCCCCCCCCC)C(C)(C)C (centres unmarked) [Lipid 159] | 2.30E+09 p/s | 
0.23 | 201.12 ± 47.7 nm·days | CCCCC/C=C\C/C=C\CCCCCCCC(=O)N(CCCN(CC)CC)C(C(=O)NCCCCCCCCCCCCCC)C(C)(C)C (centres unmarked) [Lipid 160] | 1.07E+10 p/s | 
0.27 | 253.06 ± 4.58 nm·days | CCCCCCCCCCCCCCNC(=O)C(N(CCCN(CC)CC)C(=O)CCCCCCC/C=C\C[C@H](O)CCCCCC)C(C)(C)C (some centres unmarked) [Lipid 161] |  | 
0.27 | 261.64 ± 5.92 nm·days | CC/C=C\C/C=C\C/C=C\C/C=C\C/C=C\CCCC(=O)N(CCCN(CC)CC)C(C(=O)NCCCCCCCCCCCCCC)C(C)(C)C (centres unmarked) [Lipid 162] | 6.66E+09 p/s | 
0.17 | 200.94 ± 5.63 nm·days | CCCCCCCCCCCC(=O)N(CCCN(C)C)C(C(=O)NCCCOC(=O)CCCCCCCC)C(C)(C)C (centres unmarked) [Lipid 163] | 1.73E+09 p/s | 
 |  | CCCCCCCCC(=O)OCCCNC(=O)C(N(CCCN(C)C)C(=O)CCCCCCC/C=C\C[C@H](O)CCCCCC)C(C)(C)C (some centres unmarked) [Lipid 166] | 2.98E+09 p/s | 
 |  | CCCCC/C=C\C/C=C\CCCCCCCC(=O)N(CCCN(CC)CC)C(C(=O)NCCCOC(=O)CCCCCCCC)C(C)(C)C (centres unmarked) [Lipid 170] | 5.52E+08 p/s | 
 |  | CCCCCCCCCCCC(=O)N(CCCN(C)C)C(C(=O)NCCCCCCCC(=O)OC(CCCCCCCC)CCCCCCCC)C(C)(C)C (centres unmarked) [Lipid 173] | 5.48E+08 p/s | 
0.18 | 178.88 ± 3.61 nm·days | CCCCC/C=C\C/C=C\CCCCCCCC(=O)N(CCCN(C)C)C(C(=O)NCCCCCCCC(=O)OC(CCCCCCCC)CCCCCCCC)C(C)(C)C (centres unmarked) [Lipid 175] | 7.07E+09 p/s | delivery efficiency in mRNA mouse in vivo delivery (C57Bl/6 mice; result in words): high delivery efficiency
 |  | CCCCCCCCC(CCCCCCCC)OC(=O)CCCCCCCNC(=O)C(N(CCCN(C)C)C(=O)CCCCCCC/C=C\C[C@H](O)CCCCCC)C(C)(C)C (some centres unmarked) [Lipid 176] | 9.19E+08 p/s | 
 |  | CCCCCCCCCCCC(=O)N(CCCN(CC)CC)C(C(=O)NCCCCCCCC(=O)OC(CCCCCCCC)CCCCCCCC)C(C)(C)C (centres unmarked) [Lipid 178] | 9.50E+08 p/s | 
 |  | CCCCCCCCCCCCCC(=O)N(CCCN(CC)CC)C(C(=O)NCCCCCCCC(=O)OC(CCCCCCCC)CCCCCCCC)C(C)(C)C (centres unmarked) [Lipid 179] | 2.60E+09 p/s | 
 |  | CCCCCCCCC(CCCCCCCC)OC(=O)CCCCCCCNC(=O)C(N(CCCN(CC)CC)C(=O)CCCCCCC/C=C\C[C@H](O)CCCCCC)C(C)(C)C (some centres unmarked) [Lipid 181] | 3.86E+09 p/s | 

PDI [1] | Particle size [1] | SMILES | Chemiluminescent signal (p/s) (C57Bl/6 mice; [2]) | further results
 |  | CCCCCCCCCCCCNC(=O)C(N(CCCN(C)CCO)C(=O)CCCCCCCCCCC)C(C)(C)C (centres unmarked) [Lipid 188] | 1.92E+10 p/s | 
0.19 | 188.99 ± 4.55 nm·days | CCCCCCCCCCCCCC(=O)N(CCCN(C)CCO)C(C(=O)NCCCCCCCCCCCC)C(C)(C)C (centres unmarked) [Lipid 189] | 3.32E+08 p/s | 
 |  | CCCCCCCCCCCCCCNC(=O)C(N(CCN(C)CCO)C(=O)CCCCCCCCCCCCC)C(C)(C)C (centres unmarked) [Lipid 194] | 3.84E+09 p/s | 
0.19 | 204.79 ± 3.09 nm·days | CCCCC/C=C\C/C=C\CCCCCCCC(=O)N(CCN(C)CCO)C(C(=O)NCCCCCCCCCCCCCC)C(C)(C)C (centres unmarked) [Lipid 195] | 1.43E+09 p/s | 
0.19 | 190.71 ± 1.15 nm·days | CCCCCCCC/C=C\CCCCCCCCOC(=O)CCC(=O)N(CCCN(C)C)C(C(=O)NCCCC(=O)OCCCCCCCC)C(C)(C)C (centres unmarked) [Lipid 223] | 1.26E+10 p/s | 
 |  | CCCCC/C=C\C/C=C\CCCCCCCC(=O)N(CCCN(C)C)C(C(=O)NCCCCCCOC(=O)C(CCCCCC)CCCCCCCC)C(C)(C)C (centres unmarked) [Lipid 285] | 2.91E+10 p/s | 
 |  | CCCCCCCCC(CCCCCC)C(=O)OCCCCCCNC(=O)C(N(CCCN(C)C)C(=O)CCCCCCC/C=C\C[C@H](O)CCCCCC)C(C)(C)C (some centres unmarked) [Lipid 286] | 4.78E+10 p/s | 
 |  | CC/C=C\C/C=C\C/C=C\C/C=C\C/C=C\CCCC(=O)N(CCCN(C)C)C(C(=O)NCCCCCCOC(=O)C(CCCCCC)CCCCCCCC)C(C)(C)C (centres unmarked) [Lipid 287] | 1.23E+10 p/s | 
0.26 | 150.04 ± 0.93 nm·days | CCCCCCCCC(CCCCCC)C(=O)OCCCCCCNC(=O)C(N(CCCN(CC)CC)C(=O)CCCCCCC/C=C\C[C@H](O)CCCCCC)C(C)(C)C (some centres unmarked) [Lipid 294] |  | 
0.16 | 162.45 ± 2.28 nm·days | CC/C=C\C/C=C\C/C=C\C/C=C\C/C=C\CCCC(=O)N(CCCN(CC)CC)C(C(=O)NCCCCCCOC(=O)C(CCCCCC)CCCCCCCC)C(C)(C)C (centres unmarked) [Lipid 295] |  | 
0.23 | 162.23 ± 0.89 nm·days | CCCCCCCCCCCCCC(=O)N(CCCN(C)C)C(C(=S)NCCCCCCCC(=O)OC(CCCCCCCC)CCCCCCCC)C(C)(C)C (centres unmarked) [Lipid 317] |  | 
0.18 | 111.42 ± 4.09 nm·days | CCCCCCCC/C=C\CCCCCCCCNC(=O)C(N(CCCN(C)C)C(=O)NCCCCCCCCCCCC)C(C)(C)C (centres unmarked) [Lipid 326] |  | 
0.17 | 104.99 ± 1.21 nm·days | CCCCCCCC/C=C\CCCCCCCCNC(=O)C(N(CCCN(C)C)C(=O)OCCCCCCCCCCCC)C(C)(C)C (centres unmarked) [Lipid 327] |  | 
0.18 | 92.2 ± 0.47 nm·days | CCCCCCCCC(CCCCCC)COC(=O)CCCCCCC(=O)N(CCCN(C)C)C(C(=O)NCCCCCCOC(=O)C(CCCCCC)CCCCCCCC)C(C)(C)C (centres unmarked) [Lipid 436] |  | 
0.19 | 160.5 ± 2.71 nm·days | CCCCC/C=C\C/C=C\CCCCCCCC(=O)N(CCCN(C)C)C(C(=O)NCCCCCCCC(=O)OC(CCCCCCCC)CCCCCCCC)C1CC1 (centres unmarked) [Lipid 936] |  | 
 |  | CCCCC/C=C\C/C=C\CCCCCCCC(=O)N(CCCN(C)C)C(C(=O)NCCCCCCCC(=O)OC(CCCCCCCC)CCCCCCCC)C1CCC1 (centres unmarked) [Lipid 937] |  | Chemiluminescent signal (p/s) (C57Bl/6 mice; [3]): 1.01E+08 p/s
 |  | CCCCC/C=C\C/C=C\CCCCCCCC(=O)N(CCCN(C)C)C(CC)C(=O)NCCCCCCCC(=O)OC(CCCCCCCC)CCCCCCCC (centres unmarked) [Lipid 950] |  | Chemiluminescent signal (p/s) (C57Bl/6 mice; [3]): 3.41E+07 p/s
 |  | CCCCCCCCCCCCCC(=O)N(CCCN(C)C)C(C)C(=O)NCCCCCCOC(=O)C(CCCCCC)CCCCCCCC (centres unmarked) [Lipid 1039] |  | Chemiluminescent signal (p/s) (C57Bl/6 mice; [3]): 3.31E+06 p/s
 |  | CCCCCCCCCCCCCC(=O)N(CCCN(C)C)C(CC)C(=O)NCCCCCCOC(=O)C(CCCCCC)CCCCCCCC (centres unmarked) [Lipid 1041] |  | Chemiluminescent signal (p/s) (C57Bl/6 mice; [3]): 3.31E+06 p/s
